Results as given in patent US20230085307A1, “PYRIDAZINONE COMPOUND AND HERBICIDE” (NISSAN CHEMICAL CORPORATION, priority 2019, published 2023).

What was measured:
[1] = tested on: wild oat; assay: Test Example 5: herbicidal effect by foliage application, plastic box (Table 20, symbol I); type: in vivo, wild oat (Avena fatua); conditions: amount of applied herbicide 320 g/ha; foliage application after 14-day growth; evaluated three weeks after application
Procedure, shortened: (§1)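 Sow seeds spot-wise in sterilized diluvial soil; cover with ~1.5 cm soil. Grow 14 days in greenhouse, 25° C. to 30° C. Spray foliage with emulsion diluted to predetermined amount. Rate effect after 3 weeks.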

[2] = tested on: rice flat sedge; assay: Test Example 3: herbicidal effect by foliage application, Wagner pot (Table 18, symbol E); type: in vivo, rice flat sedge (Cyperus iria)
Procedure, shortened: (§2)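 Plants were sown in alluvial soil held under 0.1–0.5 cm standing water and grown 14 days in a greenhouse at 25–30 °C. An emulsifiable formulation, water-diluted to the set dose, was then sprayed onto the foliage, and effects were scored three weeks later using previously defined criteria.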

[3] = tested on: redroot pigweed; assay: Test Example 4: herbicidal effect by soil treatment (Table 19, symbol N); type: in vivo, redroot pigweed (Amaranthus retroflexus); conditions: amount of applied herbicide 320 g/ha
Procedure, shortened: (§3)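 Applied as a water-diluted emulsion, the compound was sprayed onto soil covering newly sown seeds. Evaluation came three weeks after application, in a greenhouse held at 25° C. to 30° C.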

[4] = tested on: persian speedwell; assay: Test Example 4: herbicidal effect by soil treatment (Table 19, symbol R); type: in vivo, Persian speedwell (Veronica persica); conditions: amount of applied herbicide 320 g/ha
Procedure, shortened: as §3

[5] = tested on: velvetleaf; assay: Test Example 5: herbicidal effect by foliage application, plastic box (Table 20, symbol M); type: in vivo, velvetleaf (Abutilon theophrasti); conditions: amount of applied herbicide 320 g/ha; foliage application after 14-day growth; evaluated three weeks after application
Procedure, shortened: as §1

[6] = tested on: green foxtail; assay: Test Example 4: herbicidal effect by soil treatment (Table 19, symbol G); type: in vivo, green foxtail (Setaria viridis); conditions: amount of applied herbicide 320 g/ha
Procedure, shortened: as §3

[7] = tested on: redroot pigweed; assay: Test Example 5: herbicidal effect by foliage application, plastic box (Table 20, symbol N); type: in vivo, redroot pigweed (Amaranthus retroflexus); conditions: amount of applied herbicide 320 g/ha; foliage application after 14-day growth; evaluated three weeks after application
Procedure, shortened: as §1

[8] = tested on: Italian ryegrass; assay: Test Example 4: herbicidal effect by soil treatment (Table 19, symbol K); type: in vivo, Italian ryegrass (Lolium multiflorum); conditions: amount of applied herbicide 320 g/ha
Procedure, shortened: as §3

[9] = tested on: barnyard grass; assay: Test Example 3: herbicidal effect by foliage application, Wagner pot (Table 18, symbol H); type: in vivo, barnyard grass (Echinochloa crus-galli)
Procedure, shortened: as §2

[10] = tested on: southern crabgrass; assay: Test Example 4: herbicidal effect by soil treatment (Table 19, symbol F); type: in vivo, southern crabgrass (Digitaria ciliaris); conditions: amount of applied herbicide 320 g/ha
Procedure, shortened: as §3

[11] = tested on: southern crabgrass; assay: Test Example 5: herbicidal effect by foliage application, plastic box (Table 20, symbol F); type: in vivo, southern crabgrass (Digitaria ciliaris); conditions: amount of applied herbicide 320 g/ha; foliage application after 14-day growth; evaluated three weeks after application
Procedure, shortened: as §1

[12] = tested on: chickweed; assay: Test Example 5: herbicidal effect by foliage application, plastic box (Table 20, symbol P); type: in vivo, common chickweed (Stellaria media); conditions: amount of applied herbicide 320 g/ha; foliage application after 14-day growth; evaluated three weeks after application
Procedure, shortened: as §1

[13] = tested on: velvetleaf; assay: Test Example 4: herbicidal effect by soil treatment (Table 19, symbol M); type: in vivo, velvetleaf (Abutilon theophrasti); conditions: amount of applied herbicide 320 g/ha
Procedure, shortened: as §3

[14] = tested on: oval-leafed pondweed; assay: Test Example 1: herbicidal activity, application before weed generation under submerged conditions (Table 16, symbol C); type: in vivo, oval-leafed pondweed (Monochoria vaginalis); conditions: amount of applied herbicide 320 g/ha
Procedure, shortened: (§4)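 Submerged Wagner pots (alluvial soil, 4 cm water) sown with weed seeds and planted with 2.5-leaf rice seedlings; emulsifiable concentrate diluted in water applied to water surface on sowing day. Held in greenhouse at 25-30 °C; injury scored 0-5 by herbicidal rate after three weeks.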

[15] = tested on: windgrass; assay: Test Example 5: herbicidal effect by foliage application, plastic box (Table 20, symbol L); type: in vivo, windgrass (Apera spica-venti); conditions: amount of applied herbicide 320 g/ha; foliage application after 14-day growth; evaluated three weeks after application
Procedure, shortened: as §1

[16] = tested on: barnyard grass; assay: Test Example 4: herbicidal effect by soil treatment (Table 19, symbol H); type: in vivo, barnyard grass (Echinochloa crus-galli); conditions: amount of applied herbicide 320 g/ha
Procedure, shortened: as §3

[17] = tested on: green foxtail; assay: Test Example 5: herbicidal effect by foliage application, plastic box (Table 20, symbol G); type: in vivo, green foxtail (Setaria viridis); conditions: amount of applied herbicide 320 g/ha; foliage application after 14-day growth; evaluated three weeks after application
Procedure, shortened: as §1

[18] = tested on: lambsquarters; assay: Test Example 5: herbicidal effect by foliage application, plastic box (Table 20, symbol O); type: in vivo, lambsquarters (Chenopodium album); conditions: amount of applied herbicide 320 g/ha; foliage application after 14-day growth; evaluated three weeks after application
Procedure, shortened: as §1

[19] = tested on: Japanese bulrush; assay: Test Example 1: herbicidal activity, application before weed generation under submerged conditions (Table 16, symbol B); type: in vivo, Japanese bulrush (Schoenoplectus juncoides); conditions: amount of applied herbicide 320 g/ha
Procedure, shortened: as §4

[20] = tested on: late watergrass; assay: Test Example 1: herbicidal activity, application before weed generation under submerged conditions (Table 16, symbol A); type: in vivo, late watergrass (Echinochloa oryzicola); conditions: amount of applied herbicide 320 g/ha
Procedure, shortened: as §4

[21] = tested on: barnyard grass; assay: Test Example 5: herbicidal effect by foliage application, plastic box (Table 20, symbol H); type: in vivo, barnyard grass (Echinochloa crus-galli); conditions: amount of applied herbicide 320 g/ha; foliage application after 14-day growth; evaluated three weeks after application
Procedure, shortened: as §1

[22] = tested on: windgrass; assay: Test Example 4: herbicidal effect by soil treatment (Table 19, symbol L); type: in vivo, windgrass (Apera spica-venti); conditions: amount of applied herbicide 320 g/ha
Procedure, shortened: as §3

[23] = tested on: blackgrass; assay: Test Example 5: herbicidal effect by foliage application, plastic box (Table 20, symbol J); type: in vivo, blackgrass (Alopecurus myosuroides); conditions: amount of applied herbicide 320 g/ha; foliage application after 14-day growth; evaluated three weeks after application
Procedure, shortened: as §1

[24] = tested on: wild oat; assay: Test Example 4: herbicidal effect by soil treatment (Table 19, symbol I); type: in vivo, wild oat (Avena fatua); conditions: amount of applied herbicide 320 g/ha
Procedure, shortened: as §3

[25] = tested on: lambsquarters; assay: Test Example 4: herbicidal effect by soil treatment (Table 19, symbol O); type: in vivo, lambsquarters (Chenopodium album); conditions: amount of applied herbicide 320 g/ha
Procedure, shortened: as §3

[26] = tested on: blackgrass; assay: Test Example 4: herbicidal effect by soil treatment (Table 19, symbol J); type: in vivo, blackgrass (Alopecurus myosuroides); conditions: amount of applied herbicide 320 g/ha
Procedure, shortened: as §3

[27] = tested on: Chinese sprangletop; assay: Test Example 3: herbicidal effect by foliage application, Wagner pot (Table 18, symbol D); type: in vivo, chinese sprangletop (Leptochloa chinensis)
Procedure, shortened: as §2

[28] = tested on: Italian ryegrass; assay: Test Example 5: herbicidal effect by foliage application, plastic box (Table 20, symbol K); type: in vivo, Italian ryegrass (Lolium multiflorum); conditions: amount of applied herbicide 320 g/ha; foliage application after 14-day growth; evaluated three weeks after application
Procedure, shortened: as §1

[29] = tested on: chickweed; assay: Test Example 4: herbicidal effect by soil treatment (Table 19, symbol P); type: in vivo, common chickweed (Stellaria media); conditions: amount of applied herbicide 320 g/ha
Procedure, shortened: as §3

[30] = tested on: persian speedwell; assay: Test Example 5: herbicidal effect by foliage application, plastic box (Table 20, symbol R); type: in vivo, Persian speedwell (Veronica persica); conditions: amount of applied herbicide 320 g/ha; foliage application after 14-day growth; evaluated three weeks after application
Procedure, shortened: as §1

Row | SMILES | Herbicidal effect by foliage application, I: wild oat [1] | N: redroot pigweed, herbicidal effect grade [3] | R: persian speedwell, herbicidal effect grade [4] | Herbicidal effect by foliage application, M: velvetleaf [5] | G: green foxtail, herbicidal effect grade [6] | Herbicidal effect by foliage application, N: redroot pigweed [7] | K: Italian ryegrass, herbicidal effect grade [8] | F: southern crabgrass, herbicidal effect grade [10] | Herbicidal effect by foliage application, F: southern crabgrass [11] | Herbicidal effect by foliage application, P: chickweed [12] | M: velvetleaf, herbicidal effect grade [13] | Herbicidal effect, C: oval-leafed pondweed [14] | Herbicidal effect by foliage application, L: windgrass [15] | H: barnyard grass, herbicidal effect grade [16] | Herbicidal effect by foliage application, G: green foxtail [17] | Herbicidal effect by foliage application, O: lambsquarters [18] | Herbicidal effect, B: Japanese bulrush [19] | Herbicidal effect, A: late watergrass [20] | Herbicidal effect by foliage application, H: barnyard grass [21] | L: windgrass, herbicidal effect grade [22] | other results
1 | Cc1nn(C)c(=O)c(-c2c(-c3ccc(OC(C)C)cc3)sc3cc(F)c(F)cc23)c1O [5-019] | 0 (Herbicidal rate of 5% or less (almost no effect)) | 4 (Herbicidal rate of 70% or more and less than 90%) | 4 (Herbicidal rate of 70% or more and less than 90%) | 4 (Herbicidal rate of 70% or more and less than 90%) | 3 (Herbicidal rate of 40% or more and less than 70%) | 5 (Herbicidal rate of 90% or more (almost completely withered)) | 0 (Herbicidal rate of 5% or less (almost no effect)) | 0 (Herbicidal rate of 5% or less (almost no effect)) | 4 (Herbicidal rate of 70% or more and less than 90%) | 5 (Herbicidal rate of 90% or more (almost completely withered)) | 3 (Herbicidal rate of 40% or more and less than 70%) | 0 (Herbicidal rate of 5% or less (almost no effect)) | 0 (Herbicidal rate of 5% or less (almost no effect)) | 0 (Herbicidal rate of 5% or less (almost no effect)) | 4 (Herbicidal rate of 70% or more and less than 90%) | 3 (Herbicidal rate of 40% or more and less than 70%) | 0 (Herbicidal rate of 5% or less (almost no effect)) | 3 (Herbicidal rate of 40% or more and less than 70%) | 4 (Herbicidal rate of 70% or more and less than 90%) | 0 (Herbicidal rate of 5% or less (almost no effect)) | herbicidal effect on rice flat sedge (E) ([2]; 320 g/ha): 1 (Herbicidal rate of 5% or more and less than 20%); herbicidal effect on barnyard grass (H) ([9]; 320 g/ha): 4 (Herbicidal rate of 70% or more and less than 90%); Herbicidal effect by foliage application, J: blackgrass [23]: 0 (Herbicidal rate of 5% or less (almost no effect)); I: wild oat, herbicidal effect grade [24]: 0 (Herbicidal rate of 5% or less (almost no effect)); O: lambsquarters, herbicidal effect grade [25]: 2 (Herbicidal rate of 20% or more and less than 40%); J: blackgrass, herbicidal effect grade [26]: 0 (Herbicidal rate of 5% or less (almost no effect)); herbicidal effect on Chinese sprangletop (D) ([27]; 320 g/ha): 0 (Herbicidal rate of 5% or less (almost no effect)); Herbicidal effect by foliage application, K: Italian ryegrass [28]: 3 (Herbicidal rate of 40% or more and less than 70%); P: chickweed, herbicidal effect grade [29]: 1 (Herbicidal rate of 5% or more and less than 20%); Herbicidal effect by foliage application, R: persian speedwell [30]: 5 (Herbicidal rate of 90% or more (almost completely withered))
2 | CCCC(=O)Oc1c(C)nn(C)c(=O)c1-c1c(-c2ccc(C(=O)OC)cc2)sc2cc(F)c(F)cc12 [5-028] | 0 (Herbicidal rate of 5% or less (almost no effect)) | 3 (Herbicidal rate of 40% or more and less than 70%) | 1 (Herbicidal rate of 5% or more and less than 20%) | 3 (Herbicidal rate of 40% or more and less than 70%) | 0 (Herbicidal rate of 5% or less (almost no effect)) | 3 (Herbicidal rate of 40% or more and less than 70%) | 0 (Herbicidal rate of 5% or less (almost no effect)) | 0 (Herbicidal rate of 5% or less (almost no effect)) | 0 (Herbicidal rate of 5% or less (almost no effect)) | 5 (Herbicidal rate of 90% or more (almost completely withered)) | 0 (Herbicidal rate of 5% or less (almost no effect)) | 2 (Herbicidal rate of 20% or more and less than 40%) | 0 (Herbicidal rate of 5% or less (almost no effect)) | 0 (Herbicidal rate of 5% or less (almost no effect)) | 0 (Herbicidal rate of 5% or less (almost no effect)) | 3 (Herbicidal rate of 40% or more and less than 70%) | 2 (Herbicidal rate of 20% or more and less than 40%) | 0 (Herbicidal rate of 5% or less (almost no effect)) | 0 (Herbicidal rate of 5% or less (almost no effect)) | 0 (Herbicidal rate of 5% or less (almost no effect)) | herbicidal effect on rice flat sedge (E) ([2]; 344 g/ha): 0 (Herbicidal rate of 5% or less (almost no effect)); herbicidal effect on barnyard grass (H) ([9]; 344 g/ha): 5 (Herbicidal rate of 90% or more (almost completely withered)); Herbicidal effect by foliage application, J: blackgrass [23]: 0 (Herbicidal rate of 5% or less (almost no effect)); I: wild oat, herbicidal effect grade [24]: 0 (Herbicidal rate of 5% or less (almost no effect)); O: lambsquarters, herbicidal effect grade [25]: 2 (Herbicidal rate of 20% or more and less than 40%); J: blackgrass, herbicidal effect grade [26]: 0 (Herbicidal rate of 5% or less (almost no effect)); herbicidal effect on Chinese sprangletop (D) ([27]; 344 g/ha): 0 (Herbicidal rate of 5% or less (almost no effect)); Herbicidal effect by foliage application, K: Italian ryegrass [28]: 0 (Herbicidal rate of 5% or less (almost no effect)); P: chickweed, herbicidal effect grade [29]: 1 (Herbicidal rate of 5% or more and less than 20%); Herbicidal effect by foliage application, R: persian speedwell [30]: 4 (Herbicidal rate of 70% or more and less than 90%)
